Where two headings read alike, the source gives them in different places.
Legend:
[1] = test system: iCell endothelial cells (human iPSC-derived ECs); test: High-content imaging cytotoxicity in iCell endothelial cells, 24 h; type: cell-based; conditions: Homo sapiens, Endothelial cell, endothelial cells (endo), 24 hr
Method: The culture conditions of iCell®-endothelial cells were as reported elsewhere ([Iwata et al. 2017]). Briefly, T75 flasks were coated with a fibronectin solution ( 3 μg/cm^2 ) followed by incubation for 1–2 h. Cells were thawed for 3 min in a 37°C water bath. Thawed cells were added to maintenance medium made of VascuLife VEGF Medium Complete Kit, excluding the supplied FBS, and iCell® Endothelial Cells Medium Supplement. The final formulation of the maintenance medium is detailed in ([Iwata et al. 2017]). The aliquoted fibronectin solution was aspirated from the T75 flasks, and cells were seeded at 1.0×10^4 cells/cm^2 . Cells were maintained at 37°C and 5% CO2 with media changes occurring every 2 d and passaged every 3–4 d using TrypLE™ Express. All experiments were conducted on cells between passages 1 and 5.
Cytotoxicity was assessed in parallel experiments. For iCell®-endothelial cells, 384-well plates were coated with a 30μg/mL fibronectin solution ( 10μL/well ) and incubated for 2 h at RT. iCell®-endothelial cells were dissociated with TrypLE™ Express and prepared into a solution to achieve 750 cells per well and 50μL of total volume. The fibronectin solution was removed from the 384-well plate, and cells were plated. For HUVECs, similar dissociation and the same cell density were used for plating with the exclusion of the fibronectin solution. Cells were incubated at 37°C and 5% CO2 until a monolayer was formed, typically 3–5 d. 2×PCB plates were created with the requisite maintenance medium. Before treatment, the medium in the wells was exchanged to 25μL/well of fresh maintenance medium. 2×PCB chemical solutions ( […] ) were added. After 24 h incubation at 37°C and 5% CO2 , cells were stained with Hoechst 33342, MitoTracker™ Orange, and calcein AM for 20 min before replacing the staining media with FluoroBright DMEM. Cell culture plates were imaged using the ImageXpress® Micro Confocal high-content imaging system (Molecular Devices). Images were acquired at 10× magnification with DAPI, TRITC, or FITC filter (Hoechst 33342, MitoTracker™, or calcein AM, respectively). The multiwavelength cell scoring applications module in MetaXpress™ (Molecular Devices) was used to analyze the images.
(§1) Phenotypic responses were quantitatively assessed using concentration–response modeling as detailed elsewhere ([Sirenko et al. 2017]). Briefly, phenotypic readouts were normalized to vehicle controls and fit to a four-parameter logistic model in R studio software (version 3.1.1; R Development Core Team). Following EPA guidance on dose–response modeling, a cutoff of one standard deviation across means of vehicle control (i.e., 0.5% vol/vol DMSO in cell culture media) wells was applied to determine the point-of-departure (POD) values ([U.S. EPA 2012]). In the absence of a concentration–response, the highest tested concentration (i.e., 100μM ) was assigned as “no observable adverse effect level.” The concentration–response assessment R script, as well as templates for vehicle and concentration–response data, are available as a supplement to Sirenko et al. ([2017]). The ability of physicochemical properties to predict differences in PODs were evaluated by multiregression and mixed-effects modeling using R.

HUVECs = test: Tube formation (tubulogenesis) assay in HUVECs, 18 h; type: cell-based, human; conditions: Homo sapiens, HUVEC, 18 h, HUVEC
Method: Similar to the cultivation of iCell®-endothelial cells, HUVEC maintenance and experimentation are detailed elsewhere ([Iwata et al. 2017]). Briefly, HUVECs were thawed, seeded, and grown in T75 tissue culture flasks in Medium 199 with EGM™-2 BulletKits™. HUVECs were incubated at regular cell culture conditions, 37°C and 5% CO2 , and passaged every 2–3 d using TrypLE™ Express. To ensure adequate endothelial function, experiments were performed with cells between passages 1 and 5.
Tube formation assays were performed on Geltrex™ LDEV-free reduced growth factor basement membrane using both iCell®-endothelial cells and HUVECs in 384-well format exactly as detailed in Iwata et al. ([2017]). Negative controls included media-only and vehicle control (i.e., 0.5% vol/vol DMSO in cell culture media) wells. Positive assay controls were consistent with previously published reports ([Iwata et al. 2017]) and included TAB ( 50μM ) as a cytotoxic control, and nocodazole ( 0.01–1μM ), suramin ( 0.5–50μM ), histamine ( 0.1–100μM ), and chloroquine ( 1–500μM ) as chemicals associated with specific effects on ECs. Each test chemical was screened in triplicate for each concentration. Briefly, for iCell®-endothelial cells, starvation media consisted of VascuLife® basal medium with 4 mM L-glutamine LifeFactor and 0.1% iCell®-endothelial cells medium supplement. To counter dilution effects, a 2× concentration of the HUVEC maintenance medium supplemented with additional VEGF was created (EGM™-2 BulletKits™ at 2× concentration; also the VEGF component was replaced with 12.5 ng/mL VEGF). Geltrex™ LDEV-free reduced growth factor basement membrane was thawed overnight and dispensed into 384-well plates ( 10μL/well ) with tapping and rotating to evenly coat. The plates were incubated for 1 h in a cell culture incubator at 37°C and 5% CO2 . A 2× PCB plate (containing all of the PCBs and metabolites in dose–response) was prepared in basal media and added, 25μL per well, to the Geltrex™ coated plates. On separate plates, cells were seeded 7,500 (iPSC- ECs) or 3,500 (HUVEC) cells/well. Cells were exposed to chemicals overnight at 37°C and 5% CO2 and stained with 3× concentration of calcein AM ( 25μL /well, 6μmol/L ) for 15 min before imaging. Images were captured at 4× magnification with the FITC filter (calcein AM). Images were analyzed with the angiogenesis module software within MetaXpress™ (Molecular Devices).
as §1

**Q.** How did the minimal effective concentration ([1]; cyto, read-out: POD endo.cyto.24hr) turn out when `Clc1ccc(Cl)c(-c2c(Cl)ccc(Cl)c2Cl)c1` [PCB 95, 2,2′,3,5′,6-pentachlorobiphenyl] was run?
**A.** 100 µM

**Q.** What about the minimal effective concentration ([1]; mito, read-out: POD endo.mito.24hr) of the same compound?
**A.** 100 µM

**Q.** What about the minimal effective concentration ([1]; mitoint, read-out: POD endo.mitoint.24hr) of the same compound?
**A.** 100 µM

**Q.** And the minimal effective concentration ([1]; nma, read-out: POD endo.nma.24hr)?
**A.** 100 µM

**Q.** And the minimal effective concentration ([1]; tc, read-out: POD endo.tc.24hr)?
**A.** 100 µM

**Q.** What about the minimal effective concentration (HUVECs; tube formation mtl, read-out: POD huvec.mtl.18hr) of the same compound?
**A.** 8.29 µM

**Q.** And the minimal effective concentration (HUVECs; tube formation tlps, read-out: POD huvec.tlps.18hr)?
**A.** 100 µM

**Q.** And the minimal effective concentration (HUVECs; tube formation tta, read-out: POD huvec.tta.18hr)?
**A.** 100 µM

**Q.** What about the minimal effective concentration (HUVECs; tube formation ttl, read-out: POD huvec.ttl.18hr) of the same compound?
**A.** 100 µM

Source: PMC7377239, “Cardiovascular Effects of Polychlorinated Biphenyls and Their Major Metabolites” (Environmental Health Perspectives, 2020)
